In PubChem BioAssay (NCI):
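Each compound was tested at five concentrations against cells in 96-well plates for 48 hours. At the GI50, growth is halved. TGI is the concentration that stops growth completely.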

Assays:
Test in all cases: DTP human tumour cell line panel, 48 h
[1] = tested on: UACC-257 melanoma
[2] = tested on: SW-620 colon
[3] = tested on: RXF 393 renal
[4] = tested on: UACC-62 melanoma
[5] = tested on: CAKI-1 renal
[6] = tested on: HCT-15 colon
[7] = tested on: A549 NSCLC
[8] = tested on: UO-31 renal
[9] = tested on: HCT-116 colon
[10] = tested on: SK-OV-3 ovarian
[11] = tested on: TK-10 renal
[12] = tested on: SF-295 CNS
[13] = tested on: BT-549 breast
[14] = tested on: OVCAR-4 ovarian
[15] = tested on: NCI-H460 lung
[16] = tested on: MALME-3M melanoma
[17] = tested on: A498 renal
[18] = tested on: IGROV1 ovarian
[19] = tested on: LOX IMVI melanoma
[20] = tested on: HS 578T breast
[21] = tested on: NCI-H226 lung
[22] = tested on: MCF7 breast
[23] = tested on: SN12C renal
[24] = tested on: SK-MEL-28 melanoma
[25] = tested on: OVCAR-5 ovarian
[26] = tested on: ACHN renal
[27] = tested on: MOLT-4 leukemia
[28] = tested on: 786-0 renal
[29] = tested on: SR leukemia
[30] = tested on: SNB-19 CNS
[31] = tested on: NCI-H522 lung
[32] = tested on: SK-MEL-5 melanoma
[33] = tested on: OVCAR-8 ovarian
[34] = tested on: U251 CNS
[35] = tested on: SF-268 CNS
[36] = tested on: HOP-62 NSCLC
[37] = tested on: RPMI-8226 leukemia
[38] = tested on: SK-MEL-2 melanoma
[39] = tested on: M14 melanoma
[40] = tested on: MDA-MB-435
[41] = tested on: HL-60(TB) leukemia
[42] = tested on: T-47D breast
[43] = tested on: SNB-75 CNS
[44] = tested on: EKVX NSCLC
[45] = tested on: PC-3 prostate
[46] = tested on: HT29 colon
[47] = tested on: SF-539 CNS
[48] = tested on: KM12 colon
[49] = tested on: MDA-MB-231 breast
[50] = tested on: DU-145 prostate
[51] = tested on: HCC-2998 colon
[52] = tested on: NCI/ADR-RES ovarian
[53] = tested on: COLO 205 colon
[54] = tested on: CCRF-CEM leukemia
[55] = tested on: HOP-92 NSCLC

CCCCCCNC(=O)Oc1ccc(/C(=C(/C)c2ccc(OC)cc2)c2ccc(OCCN3CCCCCC3)cc2)cc1
GI50 [1]: 2.1 µM
TGI [1]: 5.05 µM
GI50 [2]: 2.01 µM
TGI [2]: 4.15 µM
GI50 [3]: 1.8 µM
TGI [3]: 3.85 µM
GI50 [4]: 2.21 µM
TGI [4]: 4.97 µM
GI50 [5]: 3.84 µM
TGI [5]: 15 µM
GI50 [6]: 1.48 µM
TGI [6]: 3.15 µM
GI50 [7]: 3.56 µM
TGI [7]: 14.4 µM
GI50 [8]: 2.14 µM
TGI [8]: 6.63 µM
GI50 [9]: 1.52 µM
TGI [9]: 2.85 µM
GI50 [10]: 7.57 µM
TGI [10]: 21.2 µM
GI50 [11]: 17 µM
TGI [11]: 31.3 µM
GI50 [12]: 1.76 µM
TGI [12]: 3.36 µM
GI50 [13]: 2.66 µM
TGI [13]: 7.94 µM
GI50 [14]: 4.6 µM
TGI [14]: 18.5 µM
GI50 [15]: 1.9 µM
TGI [15]: 3.52 µM
GI50 [16]: 1.77 µM
TGI [16]: 3.44 µM
GI50 [17]: 7.14 µM
TGI [17]: 20.2 µM
GI50 [18]: 3.66 µM
TGI [18]: 13.6 µM
GI50 [19]: 1.45 µM
TGI [19]: 2.76 µM
GI50 [20]: 2.75 µM
TGI [20]: 12.3 µM
GI50 [21]: 10.3 µM
TGI [21]: 23.6 µM
GI50 [22]: 0.377 µM
TGI [22]: 2.58 µM
GI50 [23]: 1.97 µM
TGI [23]: 4.77 µM
GI50 [24]: 1.86 µM
TGI [24]: 3.73 µM
GI50 [25]: 7.03 µM
TGI [25]: 20.5 µM
GI50 [26]: 3.17 µM
TGI [26]: 10.4 µM
GI50 [27]: 2.38 µM
TGI [27]: 7.45 µM
GI50 [28]: 1.68 µM
TGI [28]: 3.1 µM
GI50 [29]: 1.32 µM
TGI [29]: 4.6 µM
GI50 [30]: 7.29 µM
TGI [30]: 32.1 µM
GI50 [31]: 4.12 µM
TGI [31]: 16.2 µM
GI50 [32]: 1.69 µM
TGI [32]: 3.12 µM
GI50 [33]: 1.96 µM
TGI [33]: 3.99 µM
GI50 [34]: 1.72 µM
TGI [34]: 3.33 µM
GI50 [35]: 7.36 µM
TGI [35]: 24 µM
GI50 [36]: 6.7 µM
TGI [36]: 20.7 µM
GI50 [37]: 2.21 µM
TGI [37]: 5.47 µM
GI50 [38]: 2.09 µM
TGI [38]: 4.79 µM
GI50 [39]: 1.81 µM
TGI [39]: 3.56 µM
GI50 [40]: 2.11 µM
TGI [40]: 4.71 µM
GI50 [41]: 0.988 µM
TGI [41]: 3.47 µM
GI50 [42]: 1.39 µM
TGI [42]: 4.01 µM
GI50 [43]: 5.79 µM
TGI [43]: 22.1 µM
GI50 [44]: 5.15 µM
TGI [44]: 19.2 µM
GI50 [45]: 3.05 µM
TGI [45]: 11.4 µM
GI50 [46]: 1.71 µM
TGI [46]: 4.09 µM
GI50 [47]: 1.67 µM
TGI [47]: 3.1 µM
GI50 [48]: 10.9 µM
TGI [48]: 24.2 µM
GI50 [49]: 1.89 µM
TGI [49]: 3.76 µM
GI50 [50]: 8.29 µM
TGI [50]: 23.4 µM
GI50 [51]: 2.09 µM
TGI [51]: 4.71 µM
GI50 [52]: 2.91 µM
TGI [52]: 11.2 µM
GI50 [53]: 1.88 µM
TGI [53]: 3.54 µM
GI50 [54]: 2.62 µM
TGI [54]: > 100 µM
GI50 [55]: 2 µM
TGI [55]: 6.96 µM
